# Measurements taken from the supplement of paper PMC10307832.
# Experiments:
# Experiment in all cases: relative viability (nuclei count vs DMSO), 5 days (fraction); higher = more cells survive
# NCI-H1437 = system: NCI-H1437
# In short: (§1)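 Relative viability is defined as nuclei in treated wells over nuclei in vehicle wells. Duplicate plates were run and medians reported. Lung cancer cell lines in 1536-well plates were dosed by pin tool one day after seeding, with one drug or with a fixed anchor-drug dose plus five library-drug doses (not always all listed) in √10 steps, and nuclei were counted after 5 days.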
# NCI-H1755 = system: NCI-H1755
# In short: as §1
# NCI-H2405 = system: NCI-H2405
# In short: as §1
# NCI-H322M = system: NCI-H322M
# In short: as §1
# NCI-H727 = system: NCI-H727
# In short: as §1
# LOU-NH91 = system: LOU-NH91
# In short: as §1
# ChaGo-K-1 = system: ChaGo-K-1
# In short: as §1
# ABC-1 = system: ABC-1
# In short: as §1
# NCI-H2009 = system: NCI-H2009
# In short: as §1
# HCC-78 = system: HCC-78
# In short: as §1
# NCI-H441 = system: NCI-H441
# In short: as §1
# SK-MES-1 = system: SK-MES-1
# In short: as §1
# UMC-11 = system: UMC-11
# In short: as §1
# RERF-LC-KJ = system: RERF-LC-KJ
# In short: as §1
# HOP-62 = system: HOP-62
# In short: as §1
# NCI-H1355 = system: NCI-H1355
# In short: as §1
# NCI-H2085 = system: NCI-H2085
# In short: as §1
# NCI-H650 = system: NCI-H650
# In short: as §1
# LCLC-97TM1 = system: LCLC-97TM1
# In short: as §1
# NCI-H2170 = system: NCI-H2170
# In short: as §1
# NCI-H2023 = system: NCI-H2023
# In short: as §1
# NCI-H23 = system: NCI-H23
# In short: as §1
smiles,measurement,setting,value
Cc1cnc(-c2cnc(NCCNc3ccc(C#N)cn3)nc2-c2ccc(Cl)cc2Cl)[nH]1 + COc1cc2c(Oc3ccc(NC(=O)C4(C(=O)Nc5ccc(F)cc5)CC4)cc3F)ccnc2cc1OCCCN1CCOCC1 [Foretinib] (partner 0.25 µM),relative viability,NCI-H1437; first compound 0.08 µM,1.18
same,relative viability,NCI-H1437; first compound 0.253 µM,1.25
same,relative viability,NCI-H1437; first compound 0.8 µM,1.24
same,relative viability,NCI-H1437; first compound 2.53 µM,1.25
same,relative viability,NCI-H1755; first compound 0.08 µM,0.936
same,relative viability,NCI-H1755; first compound 0.253 µM,0.808
same,relative viability,NCI-H1755; first compound 0.8 µM,0.982
same,relative viability,NCI-H1755; first compound 2.53 µM,0.972
same,relative viability,NCI-H2405; first compound 0.08 µM,1.04
same,relative viability,NCI-H2405; first compound 0.253 µM,0.974
same,relative viability,NCI-H2405; first compound 0.8 µM,1.05
same,relative viability,NCI-H2405; first compound 2.53 µM,0.845
same,relative viability,NCI-H322M; first compound 0.08 µM,1.07
same,relative viability,NCI-H322M; first compound 0.253 µM,0.856
same,relative viability,NCI-H322M; first compound 0.8 µM,1
same,relative viability,NCI-H322M; first compound 2.53 µM,1.2
same,relative viability,NCI-H727; first compound 0.08 µM,0.943
same,relative viability,NCI-H727; first compound 0.253 µM,0.918
same,relative viability,NCI-H727; first compound 0.8 µM,0.732
same,relative viability,NCI-H727; first compound 2.53 µM,0.898
same,relative viability,LOU-NH91; first compound 0.08 µM,0.975
same,relative viability,LOU-NH91; first compound 0.253 µM,0.901
same,relative viability,LOU-NH91; first compound 0.8 µM,0.96
same,relative viability,LOU-NH91; first compound 2.53 µM,0.942
same,relative viability,ChaGo-K-1; first compound 0.08 µM,0.941
same,relative viability,ChaGo-K-1; first compound 0.253 µM,0.84
same,relative viability,ChaGo-K-1; first compound 0.8 µM,0.945
same,relative viability,ChaGo-K-1; first compound 2.53 µM,0.921
same,relative viability,ABC-1; first compound 0.08 µM,1.32
same,relative viability,ABC-1; first compound 0.253 µM,1.31
same,relative viability,ABC-1; first compound 0.8 µM,1.34
same,relative viability,ABC-1; first compound 2.53 µM,1.2
same,relative viability,NCI-H2009; first compound 0.08 µM,1.27
same,relative viability,NCI-H2009; first compound 0.253 µM,1.21
same,relative viability,NCI-H2009; first compound 0.8 µM,1.35
same,relative viability,NCI-H2009; first compound 2.53 µM,1.03
same,relative viability,HCC-78; first compound 0.08 µM,0.471
same,relative viability,HCC-78; first compound 0.253 µM,0.488
same,relative viability,HCC-78; first compound 0.8 µM,0.525
same,relative viability,HCC-78; first compound 2.53 µM,0.568
same,relative viability,NCI-H441; first compound 0.08 µM,1.2
same,relative viability,NCI-H441; first compound 0.253 µM,0.926
same,relative viability,NCI-H441; first compound 0.8 µM,1.01
same,relative viability,NCI-H441; first compound 2.53 µM,0.958
same,relative viability,SK-MES-1; first compound 0.08 µM,1.09
same,relative viability,SK-MES-1; first compound 0.253 µM,0.909
same,relative viability,SK-MES-1; first compound 0.8 µM,0.942
same,relative viability,SK-MES-1; first compound 2.53 µM,1.02
same,relative viability,UMC-11; first compound 0.08 µM,0.986
same,relative viability,UMC-11; first compound 0.253 µM,0.999
same,relative viability,UMC-11; first compound 0.8 µM,1.11
same,relative viability,UMC-11; first compound 2.53 µM,1
same,relative viability,RERF-LC-KJ; first compound 0.08 µM,0.906
same,relative viability,RERF-LC-KJ; first compound 0.253 µM,0.796
same,relative viability,RERF-LC-KJ; first compound 0.8 µM,0.826
same,relative viability,RERF-LC-KJ; first compound 2.53 µM,0.832
same,relative viability,HOP-62; first compound 0.08 µM,1.05
same,relative viability,HOP-62; first compound 0.253 µM,1.02
same,relative viability,HOP-62; first compound 0.8 µM,1.12
same,relative viability,HOP-62; first compound 2.53 µM,0.947
same,relative viability,NCI-H1355; first compound 0.08 µM,0.901
same,relative viability,NCI-H1355; first compound 0.253 µM,0.867
same,relative viability,NCI-H1355; first compound 0.8 µM,0.97
same,relative viability,NCI-H1355; first compound 2.53 µM,0.96
same,relative viability,NCI-H2085; first compound 0.08 µM,0.989
same,relative viability,NCI-H2085; first compound 0.253 µM,0.88
same,relative viability,NCI-H2085; first compound 0.8 µM,0.762
same,relative viability,NCI-H2085; first compound 2.53 µM,0.937
same,relative viability,NCI-H650; first compound 0.08 µM,1.07
same,relative viability,NCI-H650; first compound 0.253 µM,0.994
same,relative viability,NCI-H650; first compound 0.8 µM,1.09
same,relative viability,NCI-H650; first compound 2.53 µM,1.03
same,relative viability,LCLC-97TM1; first compound 0.08 µM,0.917
same,relative viability,LCLC-97TM1; first compound 0.8 µM,0.878
same,relative viability,LCLC-97TM1; first compound 2.53 µM,0.86
same,relative viability,NCI-H2170; first compound 0.08 µM,0.953
same,relative viability,NCI-H2170; first compound 0.253 µM,0.906
same,relative viability,NCI-H2170; first compound 0.8 µM,0.965
same,relative viability,NCI-H2170; first compound 2.53 µM,0.997
same,relative viability,NCI-H2023; first compound 0.08 µM,0.709
same,relative viability,NCI-H2023; first compound 0.8 µM,0.938
same,relative viability,NCI-H2023; first compound 2.53 µM,1.18
same,relative viability,NCI-H23; first compound 0.08 µM,0.938
same,relative viability,NCI-H23; first compound 0.253 µM,1
same,relative viability,NCI-H23; first compound 0.8 µM,0.983
same,relative viability,NCI-H23; first compound 2.53 µM,1
